Where only a bound is given, the exact number is not on record here.

Take `CCn1cc(CC(=O)O)c(OCCCc2ccc(OCOC)cc2Oc2ccc(C(F)(F)F)cn2)n1`: the melting point lay in the range of 82 to 83 °C.
As to `COCC(COC)Nc1c(C)nn2c(-c3ccc(Cl)cc3Cl)cccc12`, the melting point lay within 86.9 to 90 °C.
For `N#Cc1ccc(C(=O)N2CCC3(CC2)OCCO3)cn1` the value was 133 to 135 °C; for `N#Cc1c(-c2cccc(CN)c2)cc(-c2ccccc2O)nc1NC(=O)c1cccs1`, 203 to 205 °C; for `CC(C)(C)OC(=O)C1(ON=C(C(=O)O)c2ccco2)CCCC1`, 107 °C.
Turning to `COC(=O)CSc1cccc(NC(=O)NCC(=O)N(CC(=O)OC(C)(C)C)c2ccccc2C(=O)c2ccccc2)c1`, the melting point lay within 131 to 133 °C.
Consider `Cc1cccc(C2(CC(=O)O)CNC(=O)C2)c1` (stereo unspecified), for which the melting point is 152 to 154 °C.
The molecule `CCCCCC(NC(C)C)=C1C(=O)ON=C1C` had a melting point of 99 to 101 °C.
The figure for `CC(=O)OC[C@H]1O[C@@H](c2ccc(C)c(Cc3ccc(-c4ccc(F)cc4)s3)c2)[C@H](OC(C)=O)[C@@H](OC(C)=O)[C@@H]1OC(C)=O` is 160 to 170 °C; for `Cc1nc2cc3c(cc2o1)C1(CO3)C(=O)N(CC2CCCO2)c2ccccc21` (stereo unspecified) it is 188 to 190 °C.
The figure for `COC(=O)c1ccc(Cn2nc(C(N)=O)c3ccccc32)cc1` is 163 to 165 °C; for `Sc1ncc(-c2ccccc2)s1` it is 207 to 209 °C.
As to `CCOC(=O)c1c2ccc(CC(=O)NOC(=O)NC)ccc-2c(C(=O)OCC)c1N`, the melting point lay in the range of 222 to 224 °C.
In turn, `CCNC(=S)Nc1cccc(C(=O)OCC)c1NCc1ccc(-c2ccccc2C#N)cc1` yielded a melting point of 108 to 110 °C.
Take `CN1CCC23c4c5cccc4OC2C(=O)CCC3(O)C1C5` (stereo unspecified): the melting point is 223 to 225 °C.
`C=CCc1c(O)ccc2c1ccc(=O)n2CC=C` yielded a melting point of 205 to 206 °C.
With `CCOC(=O)C1=C(C)Nc2ccnc(OCC)c2C1c1ccccc1C(F)(F)F` (stereo unspecified), the melting point lay in the range of 91 to 94 °C.
Molecule `COc1ccc2c(C#N)c(-c3ncc(S(=O)(=O)NC(CF)CF)cn3)n(C3CCC3)c2n1` displayed a melting point of 229 to 230 °C.
As to `c1ccc(NCC2Oc3ccccc3O2)cc1`, the melting point was 70 to 72 °C.
Take `CC(C)n1nc(-c2sc(C(N)=S)nc2-c2ccccc2)ccc1=O`: the melting point was more than 250 °C.
For `Cc1cc(SCc2sc(-c3ccc(F)c(F)c3)nc2C)ccc1OCC(=O)O` the value was 119 °C.
The figure for `O=C(O)c1ccc(/C=C\C(c2cc(Cl)c(Cl)c(Cl)c2)C(F)(F)F)cc1Br` (stereo unspecified) is 54 to 64 °C; for `CN(C)c1ccc(C2CCCN2S(=O)(=O)c2ccc(Cl)cc2)cc1F` (racemic) it is 99 °C.
The figure for `OCC1c2cc(Cl)ccc2Oc2ccc(Cl)cc21` is 134 to 136 °C; for `CCn1nc(-c2ccccc2)c(C(C)=O)c(Nc2cccc(C(=O)O)c2Cl)c1=O` it is 255 to 256 °C; for `COc1ccccc1C(=O)OC1=C(c2nnc(-c3ccccc3OC)o2)N(C)S(=O)(=O)c2ccccc21` it is 119 to 120 °C.
Take `O=C1N(CC2CCCO2)c2c(Cl)cccc2C12COc1cc3c(cc12)CCO3` (stereo unspecified): the melting point is 192 to 193 °C.
`O=c1nc(-c2cccc(CN3CCN(c4ccc(F)cc4)CC3)n2)sc2ccccc12` returned a melting point of 156 to 157 °C.
Regarding `CC(C)(C)OC(=O)NC(C(=O)O)c1ccc(O)cc1` (stereo unspecified), the melting point lay in the range of 112 to 114 °C.
The figure for `Clc1ccc(CCC(Cn2ccnc2)SCc2ccco2)cc1` (stereo unspecified) is 97 to 98 °C; for `CC(C)(C)N1CC(=O)Nc2ccc(Br)cc2C1=O` it is 205 to 208 °C; for `CCCN1CCC(C(=O)O)=Cc2cc(Br)ccc21` it is 172 to 173 °C.
For `Cc1n[nH]c2ccc(-c3ccc4nnn(Cc5ccc6ncccc6c5)c4n3)cc12`, the melting point was in the range of 246 to 249 °C.
In turn, `CC(C)N(CCN1C(=O)/C(=N/NC(=O)NC2CCCCC2)c2ccccc21)C(C)C` came in with a melting point of 164 to 166 °C.
Molecule `O=S1(=O)NCN(C2CC2)c2c(Cl)cccc21` yielded a melting point of 142 to 143 °C.
For the molecule `O=C1NCCc2ccc(OCCCCN3CCN(c4cccc5c4OCCCO5)CC3)nc2N1`, the melting point was in the range of 78 to 79 °C.
Molecule `CC(C)Cn1c(CN2C(=O)c3ccccc3C2=O)c(-c2ccc(F)cc2)c2cc(OCc3ccccc3)ccc2c1=O` returned a melting point of 198 to 199 °C.
On to `COC(=O)C1CCn2c1cc(Cl)c2C(=O)c1ccccc1` (stereo unspecified), for which the melting point amounted to 106 °C.
For `OC(CNCCCOCCCCCCc1ccccc1)c1ccc2c(n1)COC(c1ccccc1)O2` (stereo unspecified) the value was 64 to 68 °C; for `CC(C(=O)O)c1ccc(-c2ccc(F)cc2)c(Br)c1` (stereo unspecified), 129 to 131 °C; for `CC(C)(C)[Si](C)(C)Oc1ccc(C(=O)O)cc1C12CC3CC(CC(C3)C1)C2`, 250 to 252 °C.
`CCCc1nc2c(N)nc3cc(OCCNS(C)(=O)=O)ccc3c2s1` gave a melting point of 148 to 151 °C.
The figure for `Cc1cc(C)c(Cc2ccc(=O)[nH]n2)c(C)c1` is 125 to 127 °C; for `CNC(=O)c1ccccc1Nc1nc(Nc2cc3c(cc2OC)N(C)C(=O)OCC3)ncc1Cl` it is 235 to 237 °C.
In turn, `O=C(c1c[nH]c2cc(F)ccc12)C(F)(F)F` displayed a melting point of 234 to 235 °C.
The molecule `Cc1cc2c(s1)S(=O)CCc1cc(=O)n(-c3ccc(Cl)cc3)nc1-2` (stereo unspecified) gave a melting point of 174 to 175 °C.
Take `CCOC(=O)c1ccc(NCC(C)Oc2ccc(F)cc2)cc1` (stereo unspecified): the melting point fell in the range of 96 to 98 °C.
`O=c1sc2cc(Cl)ccc2n1CCCCl` had a melting point of 131 to 132 °C.
Regarding `O=S(=O)(Nc1cccc(CCOCc2ccc(-c3ccc(Cl)c(Cl)c3)cc2F)c1)C(F)(F)F`, the melting point lay within 102 to 104 °C.
For `COc1ccc(N2CCN(c3ccc(NC(N)=S)cc3)CC2)cc1` the value was 265 °C; for `NC(CCNc1ccccc1)=NO`, 91 to 91.5 °C.
Consider `CC(=O)NC1C(NC(=O)NCCCl)OC(CO)C(O)C1O` (stereo unspecified), for which the melting point fell in the range of 181 to 182 °C.
The figure for `Cc1ccc(CCN2C(=O)COc3ccc(C=C4SC(=S)NC4=O)cc32)cc1` is 267 to 269 °C; for `COC(=O)c1cc(CO)cc([N+](=O)[O-])c1` it is 76.5 to 77.5 °C; for `CN(C)c1ccc2cc(C#N)oc2c1` it is 70 to 71 °C.
In turn, `COc1ccc(CSc2nnc(-c3ccc4ncsc4c3)o2)cc1C(F)(F)F` had a melting point of 145 to 146 °C.
The molecule `O=C1Nc2ccccc2CCC1Oc1ccc([N+](=O)[O-])c(OCc2ccccc2)c1` (stereo unspecified) displayed a melting point of 188 to 189 °C.
For `COc1cc(C)c(C(=O)c2c(OC)cnc(Cl)c2C(F)(F)F)c(OC)c1OC` the value was 117 to 119 °C; for `COc1cc2c(cc1OC)N(C)C(=O)CN=C2c1cccc([N+](=O)[O-])c1`, 152 to 155 °C; for `CC(CO)C1CCC2C3C=CC4=CC(=O)C5OC5C4(C)C3CCC12C` (stereo unspecified), 158 to 161 °C.
Regarding `O=C1CC2(CC2)CC(=O)O1`, the melting point stood at 102 °C.
Molecule `N#CCCNC(=O)c1cccc(Br)c1` registered a melting point of 100 to 101 °C.
For `Cc1cccc(NC(=O)NC2N=C(CC(C)C)c3cccc(C)c3N(CC(=O)N3CC4CCC(CC4)C3)C2=O)c1` (stereo unspecified) the value was 134 to 135 °C; for `CCCCCCCCCCc1ccc(C(N)(CO)CO)cc1`, 136 to 137 °C.
As to `Cc1ccccc1C(=O)NCN1CCN(c2ccccc2C#N)CC1`, the melting point was in the range of 62 to 64 °C.
Consider `OC(CCN1CC=C(c2ccc(Cl)cc2)CC1)c1ccc(Cl)cc1` (stereo unspecified), for which the melting point is 154 to 155 °C.
The figure for `CCOc1nc(NCc2ccco2)nc(Nc2cccc(CN3CCOCC3)c2)n1` is 69 to 71 °C; for `Cc1ccc2nc(CCl)[nH]c(=O)c2c1` it is 263 to 265 °C; for `CC1(C)CC(=O)C2=C(C1)NC1=C(C(=O)CC(C)(C)C1)C2c1cccc(Oc2ncccn2)c1` it is 220 to 221 °C.
For `c1ccc(COc2ccc(CCCCn3cncn3)cc2)cc1` the value was 68 to 69 °C; for `CNC(=S)n1nc(NC(C)=O)nc1N`, more than 300 °C; for `CCOC(=O)C1=C(N)NC2=C(C(=O)CCC2)C1c1cccc(Cl)c1` (stereo unspecified), 266 °C.
In the case of `Clc1ccc2nnnn2n1`, the melting point was 104 to 105 °C.
As to `C#Cc1cn(C2CC(O)C(CO)O2)c(=O)n(C(=O)c2ccccc2)c1=O` (stereo unspecified), the melting point fell in the range of 156 to 157 °C.
The figure for `CCN(CC)CC1CCCCN1CCCNC(=O)N1c2ccccc2C(=O)Nc2cccnc21` (stereo unspecified) is 160 to 161 °C; for `CSC1=NC(C)(C)SC1=NO` it is 168 to 171 °C; for `CC1CC2C(=CCC3(C)C(C(=O)CCl)=CCC23)C2(C)C=CC(=O)C=C12` (stereo unspecified) it is 164 °C.
The figure for `NC(=O)CC[C@H](NC(=O)OCc1ccccc1)C(=O)N[C@@H](Cc1ccc(O)cc1)C(=O)OCc1ccccc1` is 165 to 170 °C; for `CC(C)[C@H](NC(=O)OCc1ccccc1)C(N)=O` it is 206 °C.
With `O=C1N(Cc2cnc(N3CCOCC3)s2)c2ccccc2C12COc1cc3c(cc12)OCO3` (stereo unspecified), the melting point fell in the range of 97 to 99 °C.
For `COc1ccc(Cl)c(NC(C)=S)c1` the value was 92 to 93 °C; for `CCOC(=O)c1cnn(-c2ccc(Cl)cc2)c1N`, 150 to 156 °C; for `C=CCc1c2c(cc(OCc3ccccc3)c1C(C)(C)C)CC(C)(C)O2`, 73 to 74 °C.
The molecule `COCC1CN(c2ccc3cc(S(N)(=O)=O)ccc3c2)C(=O)O1` (stereo unspecified) showed a melting point of 166 to 168 °C.
Take `Fc1cccc2nc(S)sc12`: the melting point stood at 193 °C.
The molecule `C#CCN1C(=O)COc2cc(F)c(NC(=O)C3CCCN3C(=O)OCc3ccccc3)cc21` (stereo unspecified) had a melting point of 72 to 74 °C.
The figure for `O=S(=O)(Cl)c1ccc2oc3cc(Br)ccc3c2c1` is 191 to 193 °C; for `Cc1c(C)c2c(c(C)c1N)CC(C)(C)O2` it is 110 °C; for `COC(=O)c1cscc1NC(=O)NCCCCBr` it is 85 to 86 °C.
The molecule `CCCCNc1cccc([N+](=O)[O-])c1C#N` came in with a melting point of 72 to 74 °C.
For `CCCCC(=O)c1c(O)oc(=O)c(C(=O)CCCC)c1O` the value was 84 to 85 °C.

The melting point is the temperature, or range, at which the solid turns liquid.

The values are drawn from a melting point compilation (Tetko et al.; mined from patent text by program, amines drawn as free bases though some values may be those of a salt).
